Assay results as given in the supplement of paper PMC10627819.

What was measured:
S. aureus DSM 20231 [1] = assay: fitness (endpoint OD595 vs no drug) (fraction); higher = more growth
Outline: (§1)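 Background-subtracted growth curves were the basis for fitness, taken as the optical density at entry into stationary phase over the robust mean of no-drug control wells. A cap of 1 was applied. The curves came from OD595 readings every 30 min for 14 h at 37 °C, in 384-well plates seeded at OD595 0.01 with 30 µl, or 55 µl for S. pneumoniae.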

S. aureus Newman [2] = assay: as above
Outline: as §1

S. pneumoniae D39V [3] = assay: as above
Outline: as §1

B. subtilis 168 = assay: Bliss interaction score (quartile over a dose matrix) (fitness difference); higher = more antagonism (negative = synergy)
Outline: (§2)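 Fitness was defined as normalised growth: OD595 at the start of stationary phase divided by the plate's robust no-drug mean and capped at 1. Single-drug fitness was inferred from combination measurements. The Bliss score is observed fitness minus the product of the single-drug values, summarised by quartiles across technical, biological and donor/recipient replicates.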

S. aureus DSM 20231 [4] = assay: as above
Outline: as §2

S. aureus Newman [5] = assay: as above
Outline: as §2

S. pneumoniae D39V [6] = assay: as above
Outline: as §2
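Throughout, for Bliss interaction score (quartile over a dose matrix): first quartile when negative (synergy) and third quartile when positive (antagonism).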

CN(N=O)C(=O)N[C@@H](C=O)[C@@H](O)[C@H](O)[C@H](O)CO [Streptozotocin] + Cn1nnc(-c2ccc(-c3ccc(N4C[C@H](CO)OC4=O)cc3F)cn2)n1 [Tedizolid]
fitness
Settings | partner 0.03125 µg/mL | partner 0.0625 µg/mL | partner 0.125 µg/mL | partner 0.25 µg/mL
S. aureus DSM 20231 [1], first compound 0.15 µg/mL | – | 0.799 | 0.553 | 0.207
S. aureus DSM 20231 [1], first compound 0.3 µg/mL | – | 0.833 | 0.58 | 0.195
S. aureus DSM 20231 [1], first compound 0.6 µg/mL | – | 0.701 | 0.5 | 0.152
S. aureus Newman [2], first compound 0.15 µg/mL | – | 0.822 | 0.737 | 0.304
S. aureus Newman [2], first compound 0.3 µg/mL | – | 0.638 | – | 0.297
S. aureus Newman [2], first compound 0.6 µg/mL | – | 0.471 | 0.409 | 0.151
S. pneumoniae D39V [3], first compound 1.2 µg/mL | 0.921 | 0.923 | 0.809 | –
S. pneumoniae D39V [3], first compound 2.4 µg/mL | 0.921 | 0.908 | 0.828 | –
S. pneumoniae D39V [3], first compound 4.8 µg/mL | 0.932 | 0.868 | 0.87 | –

fitness, S. pneumoniae D39V [3], one replicate
Settings | first compound 1.2 µg/mL | first compound 2.4 µg/mL | first compound 4.8 µg/mL
partner 0.25 µg/mL | 0.598 | 0.653 | 0.791
partner 0.5 µg/mL | 0.426 | 0.464 | 0.547

Settings | Bliss interaction score
B. subtilis 168 | -0.0702
S. aureus DSM 20231 [4] | 0.0552
S. aureus Newman [5] | -0.0487
S. pneumoniae D39V [6] | -0.075

Cc1cc(NS(=O)(=O)c2ccc(N)cc2)no1 [Sulfamethoxazol] + CN[C@H](CC(C)C)C(=O)N[C@H]1C(=O)N[C@@H](CC(N)=O)C(=O)N[C@H]2C(=O)N[C@H]3C(=O)N[C@H](C(=O)N[C@H](C(=O)O)c4cc(O)cc(O)c4-c4cc3ccc4O)[C@H](O)c3ccc(c(Cl)c3)Oc3cc2cc(c3O[C@@H]2O[C@H](CO)[C@@H](O)[C@H](O)[C@H]2O[C@H]2C[C@](C)(N)[C@H](O)[C@H](C)O2)Oc2ccc(cc2Cl)[C@H]1O [Vancomycin]
fitness
Settings | first compound 1 µg/mL | first compound 2 µg/mL | first compound 4 µg/mL
S. aureus DSM 20231 [1], partner 0.1875 µg/mL | 0.929 | 0.932 | 0.94
S. aureus DSM 20231 [1], partner 0.375 µg/mL | ≥ 1 | ≥ 1 | 0.962
S. aureus DSM 20231 [1], partner 0.75 µg/mL | 1 | 0.983 | 0.998
S. aureus Newman [2], partner 0.1875 µg/mL | 0.991 | 0.988 | ≥ 1
S. aureus Newman [2], partner 0.375 µg/mL | 0.993 | 0.968 | ≥ 1
S. aureus Newman [2], partner 0.75 µg/mL | 0.977 | 0.953 | ≥ 1
S. pneumoniae D39V [3], partner 0.03125 µg/mL | 0.964 | 0.961 | 0.97
S. pneumoniae D39V [3], partner 0.0625 µg/mL | 0.909 | 0.899 | 0.961
S. pneumoniae D39V [3], partner 0.125 µg/mL | 0.925 | 0.94 | 0.952

one replicate
Settings | fitness
S. aureus Newman [2], first compound 8 µg/mL, partner 0.1875 µg/mL | 0.87
S. aureus Newman [2], first compound 8 µg/mL, partner 0.375 µg/mL | 0.896
S. aureus Newman [2], first compound 8 µg/mL, partner 0.75 µg/mL | 0.915
S. pneumoniae D39V [3], first compound 1 µg/mL, partner 0.25 µg/mL | 0.262
S. pneumoniae D39V [3], first compound 1 µg/mL, partner 0.5 µg/mL | 0.0171
S. pneumoniae D39V [3], first compound 2 µg/mL, partner 0.25 µg/mL | 0.258
S. pneumoniae D39V [3], first compound 2 µg/mL, partner 0.5 µg/mL | 0.0591
S. pneumoniae D39V [3], first compound 4 µg/mL, partner 0.25 µg/mL | 0.772
S. pneumoniae D39V [3], first compound 4 µg/mL, partner 0.5 µg/mL | 0.496

Settings | Bliss interaction score
B. subtilis 168 | -0.0423
S. aureus DSM 20231 [4] | 0.0457
S. aureus Newman [5] | 0.0422
S. pneumoniae D39V [6] | 0.0444

Cc1cc(NS(=O)(=O)c2ccc(N)cc2)no1 [Sulfamethoxazol] + Cn1nnc(-c2ccc(-c3ccc(N4C[C@H](CO)OC4=O)cc3F)cn2)n1 [Tedizolid]
fitness
Settings | first compound 1 µg/mL | first compound 2 µg/mL | first compound 4 µg/mL
S. aureus DSM 20231 [1], partner 0.0625 µg/mL | 0.919 | 0.922 | 0.883
S. aureus DSM 20231 [1], partner 0.125 µg/mL | 0.586 | 0.626 | 0.565
S. aureus DSM 20231 [1], partner 0.25 µg/mL | 0.213 | 0.232 | 0.223
S. aureus Newman [2], partner 0.0625 µg/mL | 0.975 | 0.958 | 0.965
S. aureus Newman [2], partner 0.125 µg/mL | 0.901 | 0.94 | 0.934
S. aureus Newman [2], partner 0.25 µg/mL | 0.576 | – | –
S. pneumoniae D39V [3], partner 0.03125 µg/mL | 0.942 | 0.945 | 0.964
S. pneumoniae D39V [3], partner 0.0625 µg/mL | 0.933 | 0.944 | 0.914
S. pneumoniae D39V [3], partner 0.125 µg/mL | 0.754 | 0.781 | 0.777

fitness, one replicate
Settings | partner 0.0625 µg/mL | partner 0.125 µg/mL | partner 0.25 µg/mL | partner 0.5 µg/mL
S. aureus Newman [2], first compound 8 µg/mL | 0.867 | 0.873 | 0.687 | –
S. pneumoniae D39V [3], first compound 1 µg/mL | – | – | 0.48 | 0.549
S. pneumoniae D39V [3], first compound 2 µg/mL | – | – | 0.529 | 0.548
S. pneumoniae D39V [3], first compound 4 µg/mL | – | – | 0.558 | 0.505

Settings | Bliss interaction score
B. subtilis 168 | -0.056
S. aureus DSM 20231 [4] | 0.0501
S. aureus Newman [5] | 0.0706
S. pneumoniae D39V [6] | -0.103
